According to ChEMBL document CHEMBL3351474, “Ambidalmines A-E and ambidimerine F: bioactive dihydrobenzophenanthridine alkaloids from Corydalis ambigua var. amurensis” (2014):

What was measured:
Assay type in all cases: functional
H9c2 [1] = experiment: Cytoprotective activity against ischemia-hypoxia injury in rat H9c2 cells assessed as increase in cell viability at 10 uM by MTT assay relative to control
H9c2 [2] = experiment: Cytoprotective activity against ischemia-hypoxia injury in rat H9c2 cells assessed as increase in cell viability at 0.01 uM by MTT assay relative to control
H9c2 [3] = experiment: Cytoprotective activity against ischemia-hypoxia injury in rat H9c2 cells assessed as increase in cell viability at 0.1 uM by MTT assay relative to control
H9c2 [4] = experiment: Cytoprotective activity against ischemia-hypoxia injury in rat H9c2 cells assessed as increase in cell viability at 1 uM by MTT assay relative to control

| SMILES | Activity (H9c2 [1]) [%] | Activity (H9c2 [2]) [%] | Activity (H9c2 [3]) [%] | Activity (H9c2 [4]) [%] |
| --- | --- | --- | --- | --- |
| COc1cc2c(OC)cc3c(c2cc1OC)N(C)[C@@H](CC(C)=O)c1c2c(cc(OC)c1-3)OCO2 | 44.27 | 53.88 | 50.09 | 45.29 |
| COc1cc2c(OC)cc3c(c2cc1OC)N(C)[C@H](CC(C)=O)c1c2c(cc(OC)c1-3)OCO2 | 29.1 | 42.15 | 40.68 | 37.74 |
| COc1cc2c(OC)cc3c(c2cc1OC)N(C)[C@@H](CO)c1c2c(cc(OC)c1-3)OCO2 | 32.71 | 47.54 | 54.72 | 49.42 |
| COc1cc2c(OC)cc3c(c2cc1OC)N(C)[C@H](CO)c1c2c(cc(OC)c1-3)OCO2 | 36.62 | 41.38 | 46.01 | 50.74 |
| COc1cc2c(OC)cc3c(c2cc1OC)N(C)[C@@H](CC(=O)C[C@H]1c2c4c(cc(OC)c2-c2cc(OC)c5cc(OC)c(OC)cc5c2N1C)OCO4)c1c2c(cc(OC)c1-3)OCO2 | 27.48 | 40.26 | 41.02 | 36.59 |
| COc1cc2c(OC)cc3c(c2cc1OC)N(C)[C@H](CC(=O)C[C@H]1c2c4c(cc(OC)c2-c2cc(OC)c5cc(OC)c(OC)cc5c2N1C)OCO4)c1c2c(cc(OC)c1-3)OCO2 | 44.75 | – | 50.56 | 44.26 |
| COc1cc2c(OC)cc3c(c2cc1OC)N(C)C(CC(=O)CC(C)(C)O)c1c2c(cc(OC)c1-3)OCO2 (racemic) | 32.63 | 41.8 | 41.47 | 44.75 |
